Structures can show the parent of a compound that is named as a salt. Where two headings read alike, the source gives them in different places.
Experiments:
[1] = target: nsp7-nsp8-nsp12 complex (Rdrp) of SARS-CoV-2 (Severe acute respiratory syndrome coronavirus 2, UniProt P0DTD1); experiment: Activity assay for SARS-CoV-2 RNA-dependent RNA polymerase; format: biochemical
[2] = system: SARS-CoV-2 (hCoV-19/Taiwan/4/2020); experiment: microbe, parasite or virus in culture; format: cell-based; conditions: for minimal effective concentration: Severe acute respiratory syndrome coronavirus 2, Vero C1008, minimal dose that showed antiinfective effect after virus challenge; for minimal effective concentration / block of viral infection in the cell-based assay (α-glucosidase inhibitors): Vero E6; for inhibition against SARS-CoV-2 in the cell-based screen: Vero E6, concentrations used in the screen (10, 3.3 and 1 μM); for block of viral infection in the cell-based assay (α-glucosidase inhibitors): tested conc. 100 μM (Fig. S4)
SARS-CoV-2 [3] = experiment: Quantification of SARS-CoV-2 via antibody staining (viral NP protein) in Vero E6 cells; format: cell-based; conditions: viral titer by antinucleocapsid antibody
SARS-CoV-2 [4] = experiment: In vivo anti-SARS-CoV-2 assay, lung virus load; conditions: female golden Syrian hamsters, intranasal infection day 0, oral twice a day 30 mg/kg/d for 3 d, n = 5
[5] = Cytotoxicity study of compounds with Vero E6 cells (CCK-8); conditions: African green monkey, Vero E6 cells, CC50 (μM)

| Compound | inhibition against SARS-CoV-2 in the cell-based screen [2] | other results |
| --- | --- | --- |
| Nc1nc(=S)c2ncn([C@@H]3O[C@H](COP(=O)(O)OP(=O)(O)OP(=O)(O)O)[C@@H](O)[C@H]3O)c2[nH]1 [TGTP, thioguanosine triphosphate] | – | inhibition against Rdrp in vitro [1]: no inhibition |
| Nc1nc2nc[nH]c2c(=S)[nH]1 [Thioguanine 3, Thioguanine] | – | minimal effective concentration ([2]; incubation 72 h (D3), read-out: CPE (μM) D3): 1.25 µM; minimal effective concentration ([2]; incubation 120 h (D5), N.I. = no inhibition, dash = cytotoxicity was observed, read-out: CPE (μM) D5): 2.5 µM; IC50 (SARS-CoV-2 [3]; 100 PFU of SARS-CoV-2 (multiplicity of infection 0.025) in Vero E6 cells): 1.7 µM; IC50 (SARS-CoV-2 [3]; Severe acute respiratory syndrome coronavirus 2, Vero C1008, 100 PFU of SARS-CoV-2 (multiplicity of infection 0.025) in Vero E6 cells): 1.67 µM; lung virus load vs control (drugs) (SARS-CoV-2 [4]): no significant antiinfective effect; CC50 at 24 h [5]: 25.4 µM |
| C=C1[C@H](CO)[C@@H](O)C[C@@H]1n1cnc2c(=O)[nH]c(N)nc21 [entecavir] | no active compound was identified | – |
| CC(=O)OCC(CCn1cnc2cnc(N)nc21)COC(C)=O [famciclovir] | no active compound was identified | – |
| CC(C)(C)NC(=O)[C@@H]1CN(Cc2cccnc2)CCN1C[C@@H](O)C[C@@H](Cc1ccccc1)C(=O)N[C@H]1c2ccccc2C[C@H]1O [indinavir sulfate] | none of these showed inhibition | – |
| OCCN1C[C@H](O)[C@@H](O)[C@H](O)[C@H]1CO [miglitol] | – | block of viral infection in the cell-based assay (α-glucosidase inhibitors) [2]: none was able to efficiently block the viral infection |
| Cc1ccnc2c1NC(=O)c1cccnc1N2C1CC1 [nevirapine] | no active compound was identified | – |
| Nc1nc2c(ncn2CCC(CO)CO)c(=O)[nH]1 [penciclovir] | no active compound was identified | – |
| NC(=O)c1ncn([C@@H]2O[C@H](CO)[C@@H](O)[C@H]2O)n1 [ribavirin] | no active compound was identified | – |
| CC(C)(C)NC(=O)[C@@H]1C[C@@H]2CCCC[C@@H]2CN1C[C@@H](O)[C@H](Cc1ccccc1)NC(=O)[C@H](CC(N)=O)NC(=O)c1ccc2ccccc2n1 [saquinavir mesylate] | none of these showed inhibition | – |
| Cc1cn([C@@H]2C[C@@H](O)[C@H](CO)O2)c(=O)[nH]c1=O [telbivudine] | no active compound was identified | – |
| CC(C)OC(=O)OCOP(=O)(CO[C@H](C)Cn1cnc2c(N)ncnc21)OCOC(=O)OC(C)C [tenofovir disoproxil fumarate] | no active compound was identified | – |
| OCC(CO)N[C@H]1C[C@](O)(CO)[C@@H](O)[C@H](O)[C@H]1O [voglibose] | – | block of viral infection in the cell-based assay (α-glucosidase inhibitors) [2]: none was able to efficiently block the viral infection |
| Nc1ccn([C@H]2CC[C@@H](CO)O2)c(=O)n1 [zalcitabine] | no active compound was identified | – |

— PMC7865145, “Identification of existing pharmaceuticals and herbal medicines as inhibitors of SARS-CoV-2 infection” (Proceedings of the National Academy of Sciences of the …, 2021)
